The source of these data is patent US4738954A, “Novel N^6 -substituted-5'-oxidized adenosine analogs” (Warner-Lambert Company, priority 1985, dated 1988).

The target in one assay is T1, adenosine A2 receptor (Rattus norvegicus, UniProt P30543).
T1 construct: Brains were thawed and then kept on ice while the striata were dissected out; tissue Pel-Freez (Rogers, Arkansas) (rat brains); host or cells: rat striatum, membranes
Nature of the assay: Adenosine Receptor Binding--A2 Receptor Affinity (RBA2), [3H]NECA displacement. Format: rat (Sprague-Dawley striatal membranes). Conditions: 4 nM [3H]NECA + 50 nM N6-cyclopentyladenosine, rat striatum, 25° C, 60 min; read-out: RBA-2 (IC50, A2 receptor affinity). How it is done: Adenosine Receptor Binding--A2 Receptor Affinity (RBA2)
Brains from 200-500 g mixed sex Sprague-Dawley rats were purchased from Pel-Freez (Rogers, Arkansas). Fresh brains from male Long-Evans hooded rats (Blue Spruce Farms, Altamont, NY) gave essentially identical results. Brains were thawed and then kept on ice while the striata were dissected out. Striata were disrupted in 10 vol of ice-cold 50 mM Tris.HCl (pH 7.7 at 25° C., pH 8.26 at 5° C.) (Tris) for 30 seconds in a Polytron PT-10 (Brinkmann) at setting 5. The suspension was centrifuged at 50,000×g for ten minutes, the supernatant discarded, the pellet resuspended in 10 vol ice-cold Tris as above, recentrifuged, resuspended at 1 g/5 ml, and stored in plastic vials at -70° C. (stable for at least six months). When needed, tissue was thawed at room temperature, disrupted in a Polytron, and kept on ice until used.
All incubations were for 60 minutes at 25° C. in 12×75 mm glass tubes containing 1 ml Tris with 5 mg original tissue weight of rat weight of rat striatal membranes, 4 nM [^3 H]-N-ethyl adenosine-5'-carboxamide ([^3 H]NECA), 50 nM N^6 -cyclopentyladenosine (to eliminate A1 receptor binding), 10 mM MgCl2, 0.1 units/ml of adenosine deaminase and 1% dimethylsulfoxide. N^6 -Cyclopentyladenosine was dissolved at 10 mM in 0.02N HCl and diluted in Tris. Stock solutions and dilutions of N^6 -cyclopentyladenosine could be stored at -20° C. for several months. Test compounds were dissolved at 10 mM in dimethylsulfoxide on the same day as the experiment, and diluted in dimethylsulfoxide to 100× the final incubation concentration. Control incubations received an equal volume (10 μl) of dimethylsulfoxide; the resulting concentration of dimethylsulfoxide had no effect on binding. [^3 H]NECA was diluted to 40 nM in Tris. The membrane suspension (5 mg/0.79 ml) contained sufficient MgCl2 and adenosine deaminase to give 10 mM and 0.1 units/ml, respectively, final concentration in the incubation. […] After all additions, the rack of tubes was vortexed, and the tubes were then incubated for 60 min at 25° C. in a shaking water bath. The rack of tubes was vortexed an additional time halfway through the incubation.
Incubations were terminated by filtration through 2.4 cm GF/B filters under reduced pressure. Each tube was filtered as follows: the contents of the tube were poured on the filter, 4 ml of ice-cold Tris were added to the tube and the contents poured onto the filter, and the filter was washed twice with 4 ml of ice-cold Tris. The filtration was complete in about twelve seconds. Filters were put in scintillation vials, 8 ml of Formula 947 scintillation fluid added, and the vials left overnight, shaken, and counted in a liquid scintillation counter at 40% efficiency.
Nonspecific binding was defined as binding in the presence of 100 μM N^6 -cyclopentyladenosine, and specific binding was defined as total binding minus nonspecific binding. The IC50 was calculated by weighted nonlinear least squares curve-fitting to the mass-action equation. [formula] where Y is cpm bound
T is cpm total binding without drug
S is cpm specific binding without drug
D is the concentration of drug and
K is the IC50 of the drug
Weighting factors were calculated under the assumption that the standard deviation was proportional to the predicted value of Y. Nonspecific binding was treated as a very large (infinite) concentration of drug in the computer analysis.

The test system of assay [1] is mean arterial blood pressure and heart rate in the conscious rat. The assay is described as follows: Antihypertensive evaluation (AHP3): aortic blood pressure and heart rate from conscious rats. The class given is in vivo. The source says:
ANTIHYPERTENSIVE EVALUATION (AHP3)
This test procedure is described in the following paragraphs.
A Method for the Direct Monitoring of Aortic Blood Pressure and Heart Rate from Conscious Rats
The continous monitoring of pulsatile blood pressure (BP) from unrestrained conscious rats surgically equipped with polyethylene cannulas was accomplished by means of a computer assisted data capture scheme (CADCS). The basic elements of the methodology are the cannulation procedure and the CADCS.
Rats were anesthetized with Telazol (1:1 tiletamine HCl and zolazepam HCl); 20-40 mg/kg IM and the descending aorta exposed via a midline incision. Cannulas fabricated from polyethylene tubing were inserted into the aorta via an undersized puncture hole below the renal arteries. The puncture hole was made by a 23 G disposable needle with a section of the aorta clamped off above and below the puncture site. The cannulas, consisting of a PE100 (0.86 mm ID) body and a PE50 (0.58 mm ID) tip, were attached to a trocar, inserted through the psoas muscle, and passed subcutaneously along the midline of the back and externalized between the ears. The cannulas were anchored to the psoas muscle and between the scalulae (3-0 green braided suture). The midline incision was closed in two steps (muscle first, skin second) using contiuous over-and over sutures (4-0 chronic). Each rat was then given penicillin 30,000 units subcutaneously (Penicilling G Procaine Sterile Suspension).
The rats were fitted with a harness-spring-swivel assembly designed to protect the cannula and to provide the rat relative freedom of movement. The harnesses were fabricated from nylon hook and loop tape cemented to a metal plate to which spring wires (18-8 stainless steel) were attached to brass swivels. Each polyethylene cannula was channeled through a spring and connected through a swivel to a pressure transducer (Model P23Gb; Statham Instruments; Hato Rey, Puerto Rico) and an infusion pump (Sage model 234-7; Orion Research, Cambridge, MA) by means of PE100 tubing. While on test, each rat received a continuous slow infusion of heparinized saline solution (approximately […] or 40 units of heparin per 24 hours period) to prevent clot formation. Additional "flushes" of the cannula with heparinized saline were carried out when the aortic pluse pressure (systolic minus diastolic) was less than 25 mm Hg.
The pulsatile blood pressure and heart rate of each of 32 rats was monitored every minute by means of two in-laboratory microcomputers communicating directly with a data concentrator computer. The data were first stored on the data concentrator disk and then transferred to a magnetic tape for analysis and report generation by the main research computer. […]

T1 sequence (P30543 whole entry): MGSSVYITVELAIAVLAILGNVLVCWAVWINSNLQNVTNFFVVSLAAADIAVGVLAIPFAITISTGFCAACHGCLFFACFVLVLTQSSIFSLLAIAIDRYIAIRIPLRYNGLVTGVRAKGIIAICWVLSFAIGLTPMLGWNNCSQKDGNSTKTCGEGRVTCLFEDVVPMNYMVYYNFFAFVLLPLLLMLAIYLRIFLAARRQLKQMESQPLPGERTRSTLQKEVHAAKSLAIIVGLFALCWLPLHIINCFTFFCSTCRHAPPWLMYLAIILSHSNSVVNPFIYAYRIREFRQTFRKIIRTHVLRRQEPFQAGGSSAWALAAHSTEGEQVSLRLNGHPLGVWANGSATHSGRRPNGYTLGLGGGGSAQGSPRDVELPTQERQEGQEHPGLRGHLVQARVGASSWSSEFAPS

What is called IC50 is the concentration that gives 50% inhibition. As to `CCOC(=O)[C@H]1O[C@@H](n2cnc3c(NC4CC5CCC4C5)ncnc32)[C@H](O)[C@@H]1O` (relative stereo) [Example 8, N-6-Norbornyl-adenosine-5'ethylcarboxylate], the IC50 on adenosine A2 receptor was 12400 nM. In addition, the “MAP (mean arterial pressure) change” value in assay [1] (10 mg/kg, hour 3, conscious rat) stood at 0%.
With `CCNC(=O)[C@H]1O[C@@H](n2cnc3c(N[C@H](C)Cc4ccccc4)ncnc32)[C@H](O)[C@@H]1O` [Example 1, (R)-N-6-[(2-phenyl-1-methyl)ethyl]-adenosine-5'-ethylcarboxamide], the 50% inhibitory concentration (IC50) at adenosine A2 receptor stood at 70 nM.
As for `CCNC(=O)[C@H]1O[C@@H](n2cnc3c(NCC(c4ccccc4)c4ccccc4)ncnc32)[C@H](O)[C@@H]1O` [Example 3, N^6-(2,2-diphenylethyl)-adenosine-5'-ethylcarboxamide], the IC50 on adenosine A2 receptor turned out to be 25 nM. Besides, in assay [1] (1 mg/kg, hour 5, conscious rat), the “HR (heart rate) change” value worked out at 0% and the “MAP (mean arterial pressure) change” value was 0%.
For the compound `CCOC(=O)[C@H]1O[C@@H](n2cnc3c(NCC(c4ccccc4)c4ccccc4)ncnc32)[C@H](O)[C@@H]1O` [Example 5, N6-(2,2-diphenylethyl)-5-adenosine-5'-ethylcarboxylate], the IC50 on adenosine A2 receptor stood at 468 nM. Besides, the “MAP (mean arterial pressure) change” value in assay [1] (10 mg/kg, hour 5, conscious rat) came out at 0%.
Take `CCNC(=O)[C@H]1O[C@@H](n2cnc3c(NCc4cccc5ccccc45)ncnc32)[C@H](O)[C@@H]1O` [Example 6, N-6-Naphthylmethyladenosine-5'-ethylcarboxamide]: the half-maximal inhibitory concentration (IC50) on adenosine A2 receptor worked out at 8 nM.
